Data: patent publication US20080095778A1, “Treatment Of Fungal Infections” (priority 2004, published 2008)
Read-outs that look alike come from different tables or passages of the source.

What was measured:
A. niger = test: Broth microdilution (NCCLS M38-A) checkerboard assay, A. niger; assay type: cell-based; conditions: for MIC: Aspergillus niger, agent alone, read-out: MIC-2 of each agent, Alone
Protocol: (§1) Stock solutions of amphotericin B (AMB, Sigma), caspofungin (Caspo), voriconazole (VOR) and itraconazole (ITZ) were prepared according to the National Committee for Clinical Laboratory Standards (M38-A) in RPMI 1640 with glutamine broth medium, buffered to pH 7.0 with […] morpholinopropanesulphonic acid (MOPS). AMB stock solutions were prepared as a 100× series in 100% dimethyl sulfoxide (DMSO) and diluted in medium to a concentration range of 0.03125 to 16 μg/ml. Caspofungin, voriconazole and itraconazole were tested at a concentration range of 0.03125 to 1024 μg/ml, and Mycograb® (NeuTec Pharma plc) at a concentration range of 0.25 to 1024 μg/ml.
(§2) Clinical isolates of Aspergillus fumigatus (2), A. flavus (1), A. terreus (1) and A. niger (1) were obtained from the Department on Microbiology, Manchester Royal Infirmary, Manchester, UK.
(§3) An inoculum suspension was prepared in buffered RPMI with glutamine medium by probing colonies from a 7 day old Sabouraud plate. The suspension was adjusted to 0.09-0.11 (80% to 82% transmittance) for Aspergillus species, 0.15-0.17 (68% to 70% transmittance). The inoculum was diluted a further 1:2 when added to the antifungal agents in the assay (final inoculum (0.4×10^4 to 0.5×10^4). For AMB and Mycograb®, either alone or in combination, the endpoint was determined as the concentration to produce no growth (MIC-0). Microtitre plates were incubated at 37° C. without agitation for 48 hours for Aspergillus species. For caspofungin, voriconazole and itraconazole, either alone or in combination with Mycograb® antibody, the MIC endpoint was determined as the concentration resulting in a prominent decrease in turbidity (≧50% growth inhibition, MIC-2) compared to the growth control (Keele et al. 2001; Espinel-Ingroff 2003). The final inhibitory concentration (FIC) was calculated for each drug by dividing the MIC in the presence of the second drug by the MIC in its absence. For each combination, two fractions were produced which were summated to produce the fractional final inhibitory concentration. Synergy was defined by value of ≦0.5, indifference was defined by a value of >0.5 to <4.0, and antagonism was defined by a value of ≧4.0 (Matthews et al., 2003).

A. fumigatus = test: Broth microdilution (NCCLS M38-A) checkerboard assay, A. fumigatus; assay type: cell-based, Aspergillus fumigatus; conditions: for MIC: Aspergillus fumigatus, agent alone, read-out: MIC-2 of each agent, Alone
Protocol: as §1, §2, §3

A. flavus = test: Broth microdilution (NCCLS M38-A) checkerboard assay, A. flavus; assay type: cell-based; conditions: for MIC: Aspergillus flavus, agent alone, read-out: MIC-2 of each agent, Alone
Protocol: as §1, §2, §3

A. fumigatus CI2 = test: Broth microdilution (NCCLS M38-A) checkerboard assay, A. fumigatus CI2; assay type: cell-based, Aspergillus fumigatus; conditions: for MIC: Aspergillus fumigatus, agent alone, read-out: MIC-2 of each agent, Alone
Protocol: as §1, §2, §3

Aspergillus species = test: Antifungal activity with Mycograb antibody, summary over the Aspergillus species examined; assay type: cell-based; conditions: summary of Tables 1-4; agent combined with Mycograb antibody
Protocol: as §3

A. terreus = test: Broth microdilution (NCCLS M38-A) checkerboard assay, A. terreus; assay type: cell-based; conditions: for MIC: Aspergillus terreus, agent alone, read-out: MIC-2 of each agent, Alone; for FIC: MIC in combination divided by MIC alone
Protocol: as §1, §2, §3

[1] = Table 2, ≧50% growth inhibition endpoint
[2] = caspofungin and Mycograb combination
[3] = caspofungin and Mycograb in combination
[4] = Table 3, ≧50% growth inhibition endpoint
[5] = itraconazole and Mycograb combination
[6] = itraconazole and Mycograb in combination
[7] = Table 4, ≧50% growth inhibition endpoint
[8] = voriconazole and Mycograb combination
[9] = voriconazole and Mycograb in combination

In the case of `CC[C@H](C)C[C@H](C)CCCCCCCCC(=O)N[C@H]1C[C@@H](O)[C@@H](NCCN)NC(=O)[C@@H]2[C@@H](O)CCN2C(=O)[C@H]([C@H](O)CCN)NC(=O)[C@H]([C@H](O)[C@@H](O)c2ccc(O)cc2)NC(=O)[C@@H]2C[C@@H](O)CN2C(=O)[C@H]([C@@H](C)O)NC1=O` [Caspo, caspofungin], the MIC (A. niger; [1]) was 1 µg/mL, the FICI (A. niger; [2]) was 0.125 and the Outcome (A. niger; [2]) was “Synergy (Synergy was defined by value of ≦0.5)”. The “MIC-2 of each agent, Combination” value (A. niger; [3]) was 0.125 µg/mL, the MIC (A. fumigatus; [1]) was 0.125 µg/mL and the FICI (A. fumigatus; [2]) was 0.562. The Outcome (A. fumigatus; [2]) was “Indifferent (indifference was defined by a value of >0.5 to <4.0)”, the “MIC-2 of each agent, Combination” value (A. fumigatus; [3]) was 0.0625 µg/mL and the MIC (A. flavus; [1]) was 1 µg/mL. For the same compound, the FICI (A. flavus; [2]) was 0.500, the Outcome (A. flavus; [2]) was “Indifferent (indifference was defined by a value of >0.5 to <4.0)” and the “MIC-2 of each agent, Combination” value (A. flavus; [3]) was 0.5 µg/mL. The MIC (A. fumigatus CI2; [1]) was 0.125 µg/mL, the FICI (A. fumigatus CI2; [2]) was 0.562 and the Outcome (A. fumigatus CI2; [2]) was “Indifferent (indifference was defined by a value of >0.5 to <4.0)”. For the same compound, the “MIC-2 of each agent, Combination” value (A. fumigatus CI2; [3]) was 0.0625 µg/mL, the “Antifungal activity / surprising effect when used in combination with Mycograb antibody” value (Aspergillus species) was “not observed” and the MIC (A. terreus; [1]) was 0.312 µg/mL. The FICI (A. terreus; [2]) was 0.312, the Outcome (A. terreus; [2]) was “Synergy (Synergy was defined by value of ≦0.5)” and the “MIC-2 of each agent, Combination” value (A. terreus; [3]) was 0.078 µg/mL. The FIC (A. terreus; caspofungin and Mycograb) was 0.25 µg/mL.
With `CCC(C)n1ncn(-c2ccc(N3CCN(c4ccc(OCC5COC(Cn6cncn6)(c6ccc(Cl)cc6Cl)O5)cc4)CC3)cc2)c1=O` (centres unmarked) [ITZ, itraconazole] the MIC (A. niger; [4]) was 0.125 µg/mL, the FICI (A. niger; [5]) was 0.375 and the Outcome (A. niger; [5]) was “Synergy (Synergy was defined by value of ≦0.5)”. For the same compound, the “MIC-2 of each agent, Combination” value (A. niger; [6]) was 0.0156 µg/mL, the MIC (A. fumigatus; [4]) was 0.5 µg/mL and the FICI (A. fumigatus; [5]) was 0.0781. The Outcome (A. fumigatus; [5]) was “Synergy (Synergy was defined by value of ≦0.5)”, the “MIC-2 of each agent, Combination” value (A. fumigatus; [6]) was 0.0312 µg/mL and the MIC (A. flavus; [4]) was 0.125 µg/mL. For the same compound, the FICI (A. flavus; [5]) was 0.25, the Outcome (A. flavus; [5]) was “Synergy (Synergy was defined by value of ≦0.5)” and the “MIC-2 of each agent, Combination” value (A. flavus; [6]) was 0.0312 µg/mL. For the same compound, the MIC (A. fumigatus CI2; [4]) was 0.5 µg/mL, the FICI (A. fumigatus CI2; [5]) was 0.2578 and the Outcome (A. fumigatus CI2; [5]) was “Synergy (Synergy was defined by value of ≦0.5)”. For the same compound, the “MIC-2 of each agent, Combination” value (A. fumigatus CI2; [6]) was 0.125 µg/mL, the MIC (A. terreus; [4]) was 0.125 µg/mL and the FICI (A. terreus; [5]) was 0.281. The Outcome (A. terreus; [5]) was “Synergy (Synergy was defined by value of ≦0.5)”, the “MIC-2 of each agent, Combination” value (A. terreus; [6]) was 0.0312 µg/mL and the FIC (A. terreus; itraconazole and Mycograb) was 0.25 µg/mL.
In the case of `C[C@@H](c1ncncc1F)[C@](O)(Cn1cncn1)c1ccc(F)cc1F` [VOR, voriconazole], the MIC (A. niger; [7]) was 0.125 µg/mL, the FICI (A. niger; [8]) was 2 and the Outcome (A. niger; [8]) was “Indifferent (indifference was defined by a value of >0.5 to <4.0)”. The “MIC-2 of each agent, Combination” value (A. niger; [9]) was 0.125 µg/mL, the MIC (A. fumigatus; [7]) was 0.0625 µg/mL and the FICI (A. fumigatus; [8]) was 0.5. For the same compound, the Outcome (A. fumigatus; [8]) was “Synergy (Synergy was defined by value of ≦0.5)”, the “MIC-2 of each agent, Combination” value (A. fumigatus; [9]) was 0.0312 µg/mL and the MIC (A. flavus; [7]) was 0.25 µg/mL. For the same compound, the FICI (A. flavus; [8]) was 0.25, the Outcome (A. flavus; [8]) was “Synergy (Synergy was defined by value of ≦0.5)” and the “MIC-2 of each agent, Combination” value (A. flavus; [9]) was 0.0625 µg/mL. For the same compound, the MIC (A. fumigatus CI2; [7]) was 0.25 µg/mL, the FICI (A. fumigatus CI2; [8]) was 0.5 and the Outcome (A. fumigatus CI2; [8]) was “Synergy (Synergy was defined by value of ≦0.5)”. The “MIC-2 of each agent, Combination” value (A. fumigatus CI2; [9]) was 0.125 µg/mL, the “Antifungal activity / surprising effect when used in combination with Mycograb antibody” value (Aspergillus species) was “surprisingly high level of antifungal activity against all the species examined except for A. niger” and the MIC (A. terreus; [7]) was 0.25 µg/mL. For the same compound, the FICI (A. terreus; [8]) was 0.5, the Outcome (A. terreus; [8]) was “Synergy (Synergy was defined by value of ≦0.5)” and the “MIC-2 of each agent, Combination” value (A. terreus; [9]) was 0.125 µg/mL. For the same compound, the FIC (A. terreus; voriconazole and Mycograb) was 0.5 µg/mL.
